Measured values taken from patent US20240376094A2, “SELECTIVE BCL-XL PROTAC COMPOUNDS AND METHODS OF USE” (Les Laboratoires Servier, priority 2021, published 2024).

Experiments:
Format in all cases: cell-based
COR-L105 = test: CellTiter-Glo proliferation assay, COR-L105; details: Homo sapiens, COR-L105, 120 h, COR-L105, 5 days; for Emax: read-out: COR-L105 Span (max)
Procedure, shortened: (§1)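 Both lines grown in RPMI-1640 + 10% FBS. COR-L105 plated flat at 1,000 cells/well overnight; NCI-H1650 grown as spheroids, 3,000 cells/well, 72 h. Compounds at 0.508 nM-10 μM final for 5 days, 37° C. ATP read by CellTiter-Glo (3D version for spheroids); IC50 from variable-slope fit normalized to untreated cells.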

NCI-H1650 = test: CellTiter-Glo 3D proliferation assay, NCI-H1650 spheroids; details: Homo sapiens, NCI-H1650, 120 h, 5 days; for Emax: read-out: NCI-H1650 Span (Amax)
Procedure, shortened: as §1

endogenous BCL-xL = target: T1, endogenous BCL-xL (Homo sapiens, UniProt Q07817); test: Degradation of endogenous BCL-xL in COR-L105 (ProteinSimple Jess); details: COR-L105, 24 h, COR-L105, dose 300 nM, read-out: % BCL-xL vs. Untreated, COR-L105
T1 construct: endogenous in cells; host or cells: COR-L105 (ECACC No. 92031918); NCI-H1650 (ATCC No. CRL-5883)
T1 sequence (Q07817 whole entry): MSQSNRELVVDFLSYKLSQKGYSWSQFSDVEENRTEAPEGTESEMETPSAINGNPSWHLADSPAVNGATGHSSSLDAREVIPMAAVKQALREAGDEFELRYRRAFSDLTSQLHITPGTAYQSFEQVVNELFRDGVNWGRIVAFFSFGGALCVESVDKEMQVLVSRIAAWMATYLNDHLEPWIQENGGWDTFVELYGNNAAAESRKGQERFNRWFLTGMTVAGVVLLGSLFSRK
Procedure: The BCL-xL degrader low molecular weight compounds were tested against two endogenous cancer cell lines: • COR-L105: ECACC No. 92031918 cultured in RPMI-1640+10% FBS • NCI-H1650: (ATCC No. CRL-5883 cultured in RPMI-1640+10% FBS
The ability of the BCL-xL degrader low molecular weight compounds to degrade endogenous BCL-xL was assessed using the ProteinSimple 2-40 kDa Jess Separation Module.
Cell lines were cultured in media that is optimal for their growth at 5% CO2, 37° C. in a tissue culture incubator. Prior to seeding for the degradation assay, the cells were split at least 2 days before the assay to ensure optimal growth density. On the day of seeding, adherent cells were lifted off tissue culture flasks using 0.25% trypsin. Cell viability and cell density were determined using a cell counter (Vi-Cell XR Cell Viability Analyzer, Beckman Coulter). Cells with higher than 85% viability were seeded for the assay.
The COR-L105 and the NCI-H1650 cell line were seeded in 6-well clear TC-treated multiple well plates (Costar® cat. #3516). Cells were seeded at a density of 2,000,000 cells per well in 2.5 mL of standard growth media. Plates were incubated at 5% CO2, 37° C. overnight in a tissue culture incubator. On the day of dosing, BCL-xL degrader low molecular weight compounds and a BCL-xL inhibitor control were prepared at 6× in standard growth media. The prepared drug treatments were then added to the cells resulting in a final concentration of 100-300 nM and a final volume of 3.0 mL per well. A control well of untreated cells was also included in the study. Each drug concentration was tested in singlet. Plates were incubated at 5% CO2, 37° C. for 24 hours in a tissue culture incubator.
After 24 hours, the adherent cells were lifted off tissue culture plates using 0.25% trypsin. Standard growth media was added to quench the trypsin and centrifuged for 5 minutes at 1500 rpm. Cell pellets were washed once with cold PBS and centrifuged for 5 minutes at 1500 rpm. Cells were then washed with 1 mL cold PBS and transferred to a 1.5 mL eppendorf tube. Cells were centrifuged for 10 minutes at ≥10,000 g at 4° C. in a benchtop mini-centrifuge. The entire supernatant was discarded and cells were resuspended thoroughly in 50 μL of RIPA lysis buffer, generated by the manufacturer's protocol (ProteinSimple, Cat. #CBS401: Lysis Kit—RIPA Buffer for Charge Assays). Lysates were incubated on ice for 30 minutes. Following incubation, lysates were spun in a benchtop mini-centrifuge for 15 minutes at full speed at 4° C. Supernatant was carefully transferred to a new eppendorf tube for downstream analysis.
Protein was quantified using a Pierce™ BCA Protein Assay Kit (ThermoFisher, cat #23225) following the manufacturer's instructions. A standard curve was prepared by adding 25 μL of each concentration of reference samples from a Pierce™ Bovine Serum Albumin Standard Pre-Diluted Set (ThermoFisher, cat #23208). Each reference sample was run in duplicate. Testing samples were prepared by diluting cell lysates 1:5 in UltraPure™ DNase/RNase-Free Distilled Water and tested in duplicates of 25 μL each. The BCA working reagent was prepared by addition of 50 parts of BCA Reagent A with 1 part of BCA Reagent B. For each testing well, 200 μL of BCA working reagent was added. The plate was incubated at 37° C. for 30 minutes. A SpectraMax M Series Multi-Mode Microplate Reader was used to measure the absorbance at 562 nm. A standard curve generated by the Pierce™ Bovine Serum Albumin Standard Pre-Diluted Set was used to normalize and calculate the BCA concentration of cell lysates. Only values that fell within the range of the standard curve were accepted for quantification.
The ProteinSimple 2-40 kDa Jess Separation Module was used to detect BCL-xL degradation in treated versus untreated lysates following the manufacturer's instructions (25-Capillary Cartridge, 8 pack, 2-40 kDa, cat #SM W012). […]

In the case of `Cc1ncsc1-c1ccc([C@H](C)NC(=O)[C@@H]2C[C@@H](O)CN2C(=O)[C@@H](NC(=O)CC2(CC(=O)N3CCN(CC#Cc4ccc(OCCCc5sc(N6CCCc7c6nnc(Nc6nc8ccccc8s6)c7C)nc5C(=O)O)c(F)c4)CC3)CCCC2)C(C)(C)C)cc1` [Example 39, 2-(3-(benzo[d]thiazol-2-ylamino)-4-methyl-6,7-dihydropyrido [2,3-c]pyridazin-8(5H)-yl)-5-(3-(2-fluoro-4-(3-(4-(2-(1-(2-(((S)-1-((2S,4R)-4-hydroxy-2-(((S)-1-(4-(4-methylthiazol-5-yl)phenyl)ethyl)carbamoyl)pyrrolidin-1-yl)-3,3-dimethyl-1-oxobutan-2-yl)amino)-2-oxoethyl)cyclopentyl)acetyl)piperazin-1-yl)prop-1-yn-1-yl)phenoxy)propyl) thiazole-4-carboxylic acid], the IC50 (COR-L105) is reported as 0.524 µM, the Emax (COR-L105) is reported as 95.3% and the IC50 (NCI-H1650) is reported as 0.0384 µM. It also gave an Emax (NCI-H1650) of 96.4% and a remaining activity at 0.3 µM (endogenous BCL-xL) of 63.6%.
Compound `Cc1ncsc1-c1ccc([C@H](C)NC(=O)[C@@H]2C[C@@H](O)CN2C(=O)[C@@H](NC(=O)CCCCCC(=O)N2CCN(CC#Cc3ccc(OCCCc4sc(N5CCCc6c5nnc(Nc5nc7ccccc7s5)c6C)nc4C(=O)O)c(F)c3)CC2)C(C)(C)C)cc1` [Example 34, 2-(3-(benzo[d]thiazol-2-ylamino)-4-methyl-6,7-dihydropyrido [2,3-c]pyridazin-8(5H)-yl)-5-(3-(2-fluoro-4-(3-(4-(7-(((S)-1-((2S,4R)-4-hydroxy-2-(((S)-1-(4-(4-methylthiazol-5-yl)phenyl)ethyl)carbamoyl)pyrrolidin-1-yl)-3,3-dimethyl-1-oxobutan-2-yl)amino)-7-oxoheptanoyl)piperazin-1-yl)prop-1-yn-1-yl)phenoxy)propyl)thiazole-4-carboxylic acid] has an IC50 (COR-L105) of 0.0742 µM, an Emax (COR-L105) of 82.7% and an IC50 (NCI-H1650) of 0.00767 µM. The Emax (NCI-H1650) was 55.4% and the remaining activity at 0.3 µM (endogenous BCL-xL) was 74.5%.
`Cc1ncsc1-c1ccc([C@H](C)NC(=O)[C@@H]2C[C@@H](O)CN2C(=O)[C@@H](NC(=O)CCCCCCCC(=O)N2CCN(CC#Cc3ccc(OCCCc4sc(N5CCCc6c5nnc(Nc5nc7ccccc7s5)c6C)nc4C(=O)O)c(F)c3)CC2)C(C)(C)C)cc1` [Example 38, 2-(3-(benzo[d]thiazol-2-ylamino)-4-methyl-6,7-dihydropyrido [2,3-c]pyridazin-8(5H)-yl)-5-(3-(2-fluoro-4-(3-(4-(9-(((S)-1-((2S,4R)-4-hydroxy-2-(((S)-1-(4-(4-methylthiazol-5-yl)phenyl)ethyl)carbamoyl)pyrrolidin-1-yl)-3,3-dimethyl-1-oxobutan-2-yl)amino)-9-oxononanoyl)piperazin-1-yl)prop-1-yn-1-yl)phenoxy)propyl)thiazole-4-carboxylic acid] was tested, and the IC50 (COR-L105) was 0.0831 µM, the Emax (COR-L105) was 87.4% and the IC50 (NCI-H1650) was 0.00815 µM. The Emax (NCI-H1650) was 87.9% and the remaining activity at 0.3 µM (endogenous BCL-xL) was 22.1%.
